Experiment: mn = molality of the nth substance listed, in mol/kg
Conditions: 101 kPa, Liquid, fixed-path interferometer

O=C(O)CC(O)(CC(=O)O)C(=O)O [citric acid] + O
speed of sound [m/s]
Conditions	288.15 K	293.15 K	298.15 K	303.15 K	308.15 K	313.15 K	318.15 K	323.15 K
m1 = 0.1003	1469.9	1485.9	1499.4	1510.9	1521	1529.8	1537.2	1542.6
m1 = 0.2504	1477.4	1492.5	1505.5	1516.2	1525.8	1533.9	1540.5	1545.9
m1 = 0.5006	1490.5	1504	1516.1	1525.7	1533.9	1541.2	1546.1	1550.7
m1 = 0.9988	1515	1526.4	1535.8	1543.3	1549.4	1554.9	1558.2	1561.1
m1 = 1.502	1538	1547.1	1554.4	1560.8	1565.6	1569.5	1572	1573.3
m1 = 2.023	1560.3	1567.1	1572.5	1576.7	1579.8	1582.2	1583.7	1582.6
m1 = 2.502	1578.8	1584.1	1587.9	1590.5	1592.4	1593.7	1593.9	1592.9
m1 = 3.006	1595.4	1598.9	1603	1603	1603.6	1603.8	1599.9	1598.2
m1 = 3.505	1613.1	1615.3	1616.7	1615.6	1615.2	1614.2	1612.6	1609.7
m1 = 3.998	1626.2	1628.7	1629.1	1626.7	1622.6	1621	1618.9	1615.4
m1 = 4.506	1640.7	1636.7	1641	1637.8	1635.5	1632.7	1629.6	1625.3
m1 = 4.997	1654.7	1653.3	1651.3	1648.6	1640.1	1635.7	1632.1	1626.1

From the NIST ThermoML archive (doi:10.1016/j.jct.2013.04.017)
